Consider eleven compounds from ChEMBL document CHEMBL3991601, “The target landscape of clinical kinase drugs” (Science, 2017).

Assay [1] concerns the target T1, Peroxisomal acyl-coenzyme A oxidase 1 (Homo sapiens, UniProt Q15067).
T1 sequence (Q15067 whole entry): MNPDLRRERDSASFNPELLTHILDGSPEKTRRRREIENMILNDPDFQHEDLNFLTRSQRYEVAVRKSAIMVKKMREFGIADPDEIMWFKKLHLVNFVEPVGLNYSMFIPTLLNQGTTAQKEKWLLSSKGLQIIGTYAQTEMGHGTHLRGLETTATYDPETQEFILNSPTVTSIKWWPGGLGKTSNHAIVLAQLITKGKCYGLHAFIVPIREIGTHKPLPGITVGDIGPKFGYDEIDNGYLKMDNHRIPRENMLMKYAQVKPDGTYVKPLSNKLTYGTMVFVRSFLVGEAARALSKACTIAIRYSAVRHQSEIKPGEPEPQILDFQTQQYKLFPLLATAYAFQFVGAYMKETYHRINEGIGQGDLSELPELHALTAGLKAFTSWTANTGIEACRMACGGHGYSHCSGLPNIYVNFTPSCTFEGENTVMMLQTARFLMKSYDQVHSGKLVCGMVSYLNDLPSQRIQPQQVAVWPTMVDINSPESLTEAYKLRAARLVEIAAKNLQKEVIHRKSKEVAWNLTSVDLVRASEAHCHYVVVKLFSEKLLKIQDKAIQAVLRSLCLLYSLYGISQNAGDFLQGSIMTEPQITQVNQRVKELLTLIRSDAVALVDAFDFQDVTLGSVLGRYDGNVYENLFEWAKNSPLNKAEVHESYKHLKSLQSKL

Assay [2] addresses Calcium/calmodulin-dependent protein kinase kinase 2 (Homo sapiens, UniProt Q96RR4).
Assay [3] concerns the target Citron Rho-interacting kinase (Homo sapiens, UniProt O14578).
The target in assay [4] is Casein kinase II subunit alpha' (Homo sapiens, UniProt P19784).
Sequence of Casein kinase II subunit alpha' (P19784 whole entry): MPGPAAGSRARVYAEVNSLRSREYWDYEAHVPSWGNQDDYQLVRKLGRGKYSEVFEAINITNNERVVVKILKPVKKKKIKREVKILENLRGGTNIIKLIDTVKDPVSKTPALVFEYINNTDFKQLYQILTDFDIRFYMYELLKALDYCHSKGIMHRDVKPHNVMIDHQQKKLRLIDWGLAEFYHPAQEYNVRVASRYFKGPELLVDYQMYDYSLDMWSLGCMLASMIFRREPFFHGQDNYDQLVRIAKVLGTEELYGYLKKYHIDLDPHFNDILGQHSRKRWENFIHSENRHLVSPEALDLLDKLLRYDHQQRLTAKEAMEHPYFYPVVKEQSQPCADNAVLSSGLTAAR
Assay [5] concerns the target T2, Phenylalanine--tRNA ligase beta subunit (Homo sapiens, UniProt Q9NSD9).
T2 sequence (Q9NSD9 whole entry): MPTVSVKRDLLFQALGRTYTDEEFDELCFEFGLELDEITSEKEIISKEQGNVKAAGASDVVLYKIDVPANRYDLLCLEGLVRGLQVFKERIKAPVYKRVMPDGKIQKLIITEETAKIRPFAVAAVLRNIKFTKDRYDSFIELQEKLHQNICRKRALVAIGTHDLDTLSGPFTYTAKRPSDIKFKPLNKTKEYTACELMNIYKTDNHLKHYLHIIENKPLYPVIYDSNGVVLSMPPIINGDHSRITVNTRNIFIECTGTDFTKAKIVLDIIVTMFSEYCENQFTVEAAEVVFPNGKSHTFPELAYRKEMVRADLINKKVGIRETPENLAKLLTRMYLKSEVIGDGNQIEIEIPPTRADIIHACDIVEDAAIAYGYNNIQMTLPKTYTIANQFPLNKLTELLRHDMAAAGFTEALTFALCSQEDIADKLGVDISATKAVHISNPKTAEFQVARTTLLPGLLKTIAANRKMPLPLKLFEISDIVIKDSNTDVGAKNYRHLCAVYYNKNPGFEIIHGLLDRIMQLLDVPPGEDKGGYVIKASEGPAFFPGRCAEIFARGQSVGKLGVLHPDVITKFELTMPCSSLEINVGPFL

In assay [6] the target is Tyrosine-protein kinase FRK (Homo sapiens, UniProt P42685).
Sequence of Tyrosine-protein kinase FRK (P42685 whole entry): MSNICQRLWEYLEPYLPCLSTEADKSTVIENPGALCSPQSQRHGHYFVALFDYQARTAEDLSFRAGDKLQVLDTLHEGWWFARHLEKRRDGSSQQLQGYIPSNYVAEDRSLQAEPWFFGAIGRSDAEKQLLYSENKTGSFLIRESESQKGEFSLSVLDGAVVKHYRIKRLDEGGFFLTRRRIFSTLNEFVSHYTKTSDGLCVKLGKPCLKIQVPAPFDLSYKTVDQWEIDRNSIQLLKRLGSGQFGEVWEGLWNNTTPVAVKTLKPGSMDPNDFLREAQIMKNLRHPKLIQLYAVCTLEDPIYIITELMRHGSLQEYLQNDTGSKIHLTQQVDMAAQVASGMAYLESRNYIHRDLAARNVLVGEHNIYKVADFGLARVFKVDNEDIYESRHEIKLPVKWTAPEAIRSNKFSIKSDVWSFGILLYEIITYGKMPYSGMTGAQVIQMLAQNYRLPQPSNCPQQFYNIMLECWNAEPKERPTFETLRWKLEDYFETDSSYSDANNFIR
The target of assay [7] is T3, Dual specificity mitogen-activated protein kinase kinase 3 (Homo sapiens, UniProt P46734).
T3 sequence (P46734 whole entry): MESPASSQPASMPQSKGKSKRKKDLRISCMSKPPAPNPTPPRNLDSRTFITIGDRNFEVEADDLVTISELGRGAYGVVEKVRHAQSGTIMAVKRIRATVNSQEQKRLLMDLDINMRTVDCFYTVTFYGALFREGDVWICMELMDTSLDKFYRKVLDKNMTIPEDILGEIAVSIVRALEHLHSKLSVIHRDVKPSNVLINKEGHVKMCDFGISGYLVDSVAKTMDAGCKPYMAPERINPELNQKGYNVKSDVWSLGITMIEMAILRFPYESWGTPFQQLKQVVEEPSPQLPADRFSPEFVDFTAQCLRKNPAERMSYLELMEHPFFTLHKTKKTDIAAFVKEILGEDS

In assay [8] the target is Mitogen-activated protein kinase kinase kinase 4 (Homo sapiens, UniProt Q9Y6R4).
Sequence of Mitogen-activated protein kinase kinase kinase 4 (Q9Y6R4 whole entry): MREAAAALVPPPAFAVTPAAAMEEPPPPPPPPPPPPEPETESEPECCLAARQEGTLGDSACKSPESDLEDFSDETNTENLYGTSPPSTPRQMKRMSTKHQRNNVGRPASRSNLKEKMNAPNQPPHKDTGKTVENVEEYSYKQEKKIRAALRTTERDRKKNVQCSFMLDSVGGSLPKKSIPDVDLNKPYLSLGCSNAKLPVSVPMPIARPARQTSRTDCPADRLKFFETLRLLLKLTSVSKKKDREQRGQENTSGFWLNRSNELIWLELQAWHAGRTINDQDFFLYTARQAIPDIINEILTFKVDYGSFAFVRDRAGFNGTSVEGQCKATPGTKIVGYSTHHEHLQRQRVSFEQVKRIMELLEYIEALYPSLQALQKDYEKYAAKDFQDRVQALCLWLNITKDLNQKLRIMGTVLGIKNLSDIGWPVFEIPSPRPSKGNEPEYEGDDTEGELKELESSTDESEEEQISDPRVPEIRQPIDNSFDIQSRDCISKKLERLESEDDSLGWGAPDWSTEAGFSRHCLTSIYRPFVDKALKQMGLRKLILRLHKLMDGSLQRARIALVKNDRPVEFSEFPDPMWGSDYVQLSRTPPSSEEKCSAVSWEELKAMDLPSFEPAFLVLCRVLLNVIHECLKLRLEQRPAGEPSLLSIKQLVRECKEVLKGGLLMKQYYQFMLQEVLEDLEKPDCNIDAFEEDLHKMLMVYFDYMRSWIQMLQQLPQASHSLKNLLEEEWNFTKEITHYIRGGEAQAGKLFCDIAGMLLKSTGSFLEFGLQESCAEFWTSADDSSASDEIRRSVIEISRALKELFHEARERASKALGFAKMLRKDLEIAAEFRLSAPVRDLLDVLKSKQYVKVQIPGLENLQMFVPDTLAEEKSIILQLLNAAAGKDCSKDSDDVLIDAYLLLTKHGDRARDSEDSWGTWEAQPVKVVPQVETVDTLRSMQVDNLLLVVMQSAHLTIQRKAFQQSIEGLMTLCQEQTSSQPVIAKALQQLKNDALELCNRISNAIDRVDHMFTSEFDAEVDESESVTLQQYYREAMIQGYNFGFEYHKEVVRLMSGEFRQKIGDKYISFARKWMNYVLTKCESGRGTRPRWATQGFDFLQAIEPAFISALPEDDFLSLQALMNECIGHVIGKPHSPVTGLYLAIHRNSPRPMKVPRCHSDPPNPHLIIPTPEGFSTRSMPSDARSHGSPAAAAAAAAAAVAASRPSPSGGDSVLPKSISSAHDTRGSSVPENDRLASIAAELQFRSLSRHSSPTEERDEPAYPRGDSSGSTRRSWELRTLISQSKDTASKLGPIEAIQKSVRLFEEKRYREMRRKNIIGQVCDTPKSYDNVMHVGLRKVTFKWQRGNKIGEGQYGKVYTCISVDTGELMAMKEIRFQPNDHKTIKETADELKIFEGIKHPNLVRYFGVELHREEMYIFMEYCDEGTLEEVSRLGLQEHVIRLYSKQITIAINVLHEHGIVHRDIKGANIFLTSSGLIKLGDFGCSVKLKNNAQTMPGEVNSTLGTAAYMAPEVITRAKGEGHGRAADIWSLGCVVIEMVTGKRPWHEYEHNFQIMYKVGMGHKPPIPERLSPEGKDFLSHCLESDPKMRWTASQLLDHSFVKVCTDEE
The target of assay [9] is Mitogen-activated protein kinase 9 (Homo sapiens, UniProt P45984).
Sequence of Mitogen-activated protein kinase 9 (P45984 whole entry): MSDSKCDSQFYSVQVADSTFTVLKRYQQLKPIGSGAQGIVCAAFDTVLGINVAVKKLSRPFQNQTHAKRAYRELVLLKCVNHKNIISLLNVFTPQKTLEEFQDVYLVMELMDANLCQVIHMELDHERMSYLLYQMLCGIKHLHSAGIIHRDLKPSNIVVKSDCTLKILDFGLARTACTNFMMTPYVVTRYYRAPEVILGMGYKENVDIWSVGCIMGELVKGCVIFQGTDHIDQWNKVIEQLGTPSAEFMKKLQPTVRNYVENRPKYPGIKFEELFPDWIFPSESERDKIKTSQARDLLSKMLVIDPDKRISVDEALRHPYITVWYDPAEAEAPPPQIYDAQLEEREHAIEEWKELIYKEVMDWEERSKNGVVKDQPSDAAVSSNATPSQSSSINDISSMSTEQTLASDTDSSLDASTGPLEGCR
Assay [10] deals with Serine/threonine-protein kinase N2 (Homo sapiens, UniProt Q16513).
Assay [11] has as its target T4, EKC/KEOPS complex subunit TP53RK (Homo sapiens, UniProt Q96S44).
T4 sequence (Q96S44 whole entry): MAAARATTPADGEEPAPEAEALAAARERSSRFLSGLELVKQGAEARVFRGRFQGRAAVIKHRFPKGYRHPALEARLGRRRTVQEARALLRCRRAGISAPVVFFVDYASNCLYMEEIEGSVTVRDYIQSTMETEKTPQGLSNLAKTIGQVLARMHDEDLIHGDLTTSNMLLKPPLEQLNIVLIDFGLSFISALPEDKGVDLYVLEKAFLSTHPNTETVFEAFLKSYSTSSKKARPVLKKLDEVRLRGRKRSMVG

Activity calls are given as the source filed them. For most assays here, no stated cut-off is given here; in the data, actives have a measured Kd and inactives only a lower limit.

Sequence of Citron Rho-interacting kinase (O14578 whole entry): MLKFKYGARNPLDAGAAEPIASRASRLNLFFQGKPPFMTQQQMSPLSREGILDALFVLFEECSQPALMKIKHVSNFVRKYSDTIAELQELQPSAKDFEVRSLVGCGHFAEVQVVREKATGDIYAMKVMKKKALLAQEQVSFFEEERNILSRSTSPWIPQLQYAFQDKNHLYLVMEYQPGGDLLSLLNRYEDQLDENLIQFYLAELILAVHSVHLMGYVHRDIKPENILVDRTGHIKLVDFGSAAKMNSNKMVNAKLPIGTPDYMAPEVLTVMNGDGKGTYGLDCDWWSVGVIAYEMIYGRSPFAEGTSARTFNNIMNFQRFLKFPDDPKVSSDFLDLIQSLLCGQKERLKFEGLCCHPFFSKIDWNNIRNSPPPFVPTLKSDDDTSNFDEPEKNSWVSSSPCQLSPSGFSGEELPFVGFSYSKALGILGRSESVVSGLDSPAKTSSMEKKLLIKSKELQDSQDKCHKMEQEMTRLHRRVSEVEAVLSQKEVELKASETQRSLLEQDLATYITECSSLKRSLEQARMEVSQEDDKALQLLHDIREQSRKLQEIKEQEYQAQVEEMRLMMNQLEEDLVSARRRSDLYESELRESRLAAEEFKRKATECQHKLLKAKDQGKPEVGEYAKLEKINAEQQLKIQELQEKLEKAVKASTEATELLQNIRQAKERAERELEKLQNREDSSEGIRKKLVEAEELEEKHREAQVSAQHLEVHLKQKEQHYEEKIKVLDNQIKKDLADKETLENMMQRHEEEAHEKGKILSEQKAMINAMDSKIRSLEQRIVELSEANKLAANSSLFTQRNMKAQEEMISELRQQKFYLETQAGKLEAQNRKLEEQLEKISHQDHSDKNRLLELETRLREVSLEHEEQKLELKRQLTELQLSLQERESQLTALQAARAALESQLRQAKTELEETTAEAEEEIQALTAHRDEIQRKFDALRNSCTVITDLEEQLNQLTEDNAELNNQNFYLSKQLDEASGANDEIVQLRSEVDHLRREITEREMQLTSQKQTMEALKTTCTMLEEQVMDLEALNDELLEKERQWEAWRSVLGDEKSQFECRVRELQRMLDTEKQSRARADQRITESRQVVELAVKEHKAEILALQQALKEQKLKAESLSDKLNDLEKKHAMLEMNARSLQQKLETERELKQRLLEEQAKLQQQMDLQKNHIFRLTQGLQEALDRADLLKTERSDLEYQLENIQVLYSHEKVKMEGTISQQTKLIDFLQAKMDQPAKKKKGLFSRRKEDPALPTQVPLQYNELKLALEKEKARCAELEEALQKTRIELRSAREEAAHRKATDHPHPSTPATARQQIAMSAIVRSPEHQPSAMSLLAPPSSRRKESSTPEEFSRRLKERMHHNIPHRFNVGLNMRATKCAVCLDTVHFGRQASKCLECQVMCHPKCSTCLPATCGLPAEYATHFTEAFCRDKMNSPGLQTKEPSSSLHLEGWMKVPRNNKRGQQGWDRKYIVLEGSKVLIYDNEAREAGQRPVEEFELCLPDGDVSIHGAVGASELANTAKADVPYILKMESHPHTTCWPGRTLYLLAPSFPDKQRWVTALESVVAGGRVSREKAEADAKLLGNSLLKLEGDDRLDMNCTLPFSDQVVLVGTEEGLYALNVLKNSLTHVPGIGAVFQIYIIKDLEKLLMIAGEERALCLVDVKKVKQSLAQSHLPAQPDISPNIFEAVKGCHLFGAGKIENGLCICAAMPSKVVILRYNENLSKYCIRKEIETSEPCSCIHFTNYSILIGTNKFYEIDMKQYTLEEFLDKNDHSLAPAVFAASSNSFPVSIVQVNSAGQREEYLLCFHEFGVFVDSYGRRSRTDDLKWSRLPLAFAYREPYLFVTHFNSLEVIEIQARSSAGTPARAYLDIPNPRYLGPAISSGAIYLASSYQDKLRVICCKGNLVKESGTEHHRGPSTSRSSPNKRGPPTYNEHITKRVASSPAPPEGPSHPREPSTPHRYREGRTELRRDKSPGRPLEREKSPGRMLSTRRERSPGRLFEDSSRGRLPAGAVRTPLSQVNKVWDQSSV

The Kd is the constant that tells how readily two partners part at equilibrium. For `CNC(=O)CN1CCC(Oc2cc3c(Nc4cccc(Cl)c4F)ncnc3cc2OC)CC1` [SAPITINIB], the Kd in assay [1], in [2], in assay [3], in assay [4], in [5] and in [6] was > 30 µM (inactive) throughout. Further, the Kd in [7], in assay [8], in assay [9], in [10] and in [11] was > 30 µM (inactive) in each case.
For the compound `CC(=O)Nc1cccc(-n2c(=O)n(C3CC3)c(=O)c3c(Nc4ccc(I)cc4F)n(C)c(=O)c(C)c32)c1` [TRAMETINIB], the Kd in [1], in [2], in assay [3], in [4], in [5] and in assay [6] was > 30 µM (inactive) throughout. Also, the Kd in assay [7], in assay [8], in [9], in [10] and in assay [11] was > 30 µM (inactive) each time.
Regarding `COC(=O)N[C@@H](C)CNc1nccc(-c2cn(C(C)C)nc2-c2cc(Cl)cc(NS(C)(=O)=O)c2F)n1` [ENCORAFENIB], the Kd in assay [1], in assay [2], in [3], in [4], in assay [5] and in [6] was > 30 µM (inactive) throughout. The Kd is > 30 µM (inactive) in assay [7]; 1.44 µM (active) in [8]; 0.915 µM (active) in assay [9]; > 30 µM (inactive) in assay [10]; > 30 µM (inactive) in assay [11].
`CNC(=O)c1ccc(-c2cnc3ncc(Cc4ccc5ncccc5c4)n3n2)cc1F` [CAPMATINIB]: the Kd in [1], in assay [2], in assay [3], in assay [4], in assay [5] and in assay [6] was > 30 µM (inactive) throughout. The Kd in assay [7], in assay [8], in [9], in [10] and in assay [11] was > 30 µM (inactive) in each case.
Turning to `COC(=O)[C@@]1(O)C[C@H]2O[C@]1(C)n1c3ccccc3c3c4c(c5c6ccccc6n2c5c31)C(=O)NC4` [K-252A], the Kd in [1] was > 30 µM (inactive); in assay [2], 2.28 µM (active); in assay [3], > 30 µM (inactive); in assay [4], > 30 µM (inactive); in assay [5], > 30 µM (inactive); in [6] it was > 30 µM (inactive). Also, the Kd is > 30 µM (inactive) in assay [7]; > 30 µM (inactive) in assay [8]; 0.986 µM (active) in [9]; 0.361 µM (active) in assay [10]; 3.84 µM (active) in assay [11].
As for `CNS(=O)(=O)Nc1nccc(Cc2c(C)c3ccc(Oc4ncccn4)cc3oc2=O)c1F` [AVUTOMETINIB], the Kd in assay [1], in [2], in assay [3], in [4], in assay [5] and in [6] was > 30 µM (inactive) throughout. In addition, the Kd in [7], in [8], in assay [9], in [10] and in [11] was > 30 µM (inactive) each time.
Turning to `COc1ccc(-c2ccc3c(N4CCOC[C@@H]4C)nc(N4CCOC[C@@H]4C)nc3n2)cc1CO` [AZD-8055], the Kd in assay [1], in assay [2], in assay [3], in [4], in [5] and in [6] was > 30 µM (inactive) in each case. The Kd in [7], in [8], in assay [9], in [10] and in assay [11] was > 30 µM (inactive) in each case.
For `O=C1NC(=O)/C(=C/c2ccc3nccc(-c4ccncc4)c3c2)S1` [GSK-1059615], the Kd was > 30 µM (inactive) in [1]; > 30 µM (inactive) in assay [2]; > 30 µM (inactive) in assay [3]; 0.017 µM (active) in [4]; > 30 µM (inactive) in assay [5]; > 30 µM (inactive) in assay [6]. For the same compound, the Kd is > 30 µM (inactive) in [7]; > 30 µM (inactive) in assay [8]; > 30 µM (inactive) in [9]; > 30 µM (inactive) in assay [10]; 0.058 µM (active) in [11].
Take `C[C@@H](Nc1cc(F)cc(F)c1)c1cc(C(=O)N(C)C)cc2c(=O)cc(N3CCOCC3)oc12` [AZD-8186]: the Kd in assay [1], in assay [2], in [3], in [4], in assay [5] and in assay [6] was > 30 µM (inactive) throughout. The Kd in assay [7], in assay [8], in [9], in [10] and in [11] was > 30 µM (inactive) each time.
Take `COc1cc(CCc2cc(NC(=O)c3ccc(N4C[C@@H](C)N[C@@H](C)C4)cc3)n[nH]2)cc(OC)c1` [AZD-4547]: the Kd in [1], in assay [2], in assay [3], in assay [4], in assay [5] and in [6] was > 30 µM (inactive) throughout. In addition, the Kd in [7], in [8], in [9], in assay [10] and in assay [11] was > 30 µM (inactive) each time.
Take `Cc1cc2c(F)c(Oc3ncnn4cc(OC[C@@H](C)OC(=O)[C@H](C)N)c(C)c34)ccc2[nH]1` [BRIVANIB ALANINATE]: the Kd in assay [1], in assay [2], in assay [3], in [4], in assay [5] and in assay [6] was > 30 µM (inactive) in each case. Besides, the Kd in [7], in [8], in assay [9], in assay [10] and in assay [11] was > 30 µM (inactive) in each case.
